According to ChEMBL document CHEMBL1157539, “Thousands of chemical starting points for antimalarial lead identification” (Nature, 2010):

Test system: Plasmodium falciparum
Experiment: GSK_TCMDC: Inhibition of Plasmodium falciparum 3D7 in whole erythrocytes, using parasite LDH activity as an index of growth.
Type: functional, organism-based
Settings: Plasmodium falciparum, 3D7

SMILES | XC50
CC(C)N1CCC(N(Cc2ccc(-c3ccc(Cl)cc3)cc2)C(=O)Cn2c(CCc3cccc(F)c3F)cc(=O)c3ccccc32)CC1 | 929 nM
CCNc1cc(C(=O)N[C@@H](Cc2ccccc2)[C@H](O)CNCCCc2ccc(OC)cc2)cc(N2CCCC2=O)c1 | 556 nM
Cn1cncc1CCN(Cc1ccc(-c2ccc(C(F)(F)F)cc2)cc1)C(=O)Cn1c(CCc2cccc(F)c2F)cc(=O)c2cccnc21 | 853 nM
CN1CCC(NCc2cccc(-c3ccc(S(=O)(=O)NCc4ccccc4)c(F)c3)c2)CC1 | 325 nM
COc1cc2nc(N3CCC(CNC(=O)c4cc5ccccc5s4)CC3)nc(N)c2cc1OC | 293 nM
COc1ccc2nccc([C@@H](O)CN3CCC(NCc4cc5oc(=O)n(C)c5cc4F)CC3)c2c1 | 661 nM
Cc1cccc2nc(-c3ccc(-c4ccc(CN5CCN(CCO)CC5)cc4)s3)[nH]c12 | 712 nM
C=CCN1Cc2c(O)cccc2C(c2ccc(O)c(O)c2)C1 (stereo not given) | 670 nM
CCCCc1cc(NCc2ccncc2)nc(Nc2ccc(OC)cc2)n1 | 1060 nM
COc1ccc(NC(=O)c2ccc(NC(=O)c3ccc(Cl)cc3)cc2)cc1N1CCN(C)CC1 | 849 nM
CCc1cn2c3c(cc(C(=O)N[C@@H](Cc4ccccc4)[C@H](O)CNCCOC)cc13)N(C)S(=O)(=O)CC2 | 954 nM
CC(NC(=O)c1ccc(O)c(-c2ccc(Cl)c(Cl)c2)c1)C(=O)NCCN1CCCC1 (stereo not given) | 759 nM
O=C(Nc1ccc(-c2nc3ccccc3[nH]2)cc1)C1CCCN(C2CCC2)C1 (stereo not given) | 1350 nM
CCCN(CCCCCCNCCc1ccc(Cl)cc1)CCc1ccc(O)c(O)c1 | 943 nM
CC(C)(C)Oc1ccc(NC(=O)c2ccccc2O)cc1 | 1010 nM
C=C(NC(=O)C1CCCCC1)C(=O)OC | 849 nM
Fc1ccc2[nH]c(-c3cccc(-c4ccc(CNCCN5CCNCC5)cc4)c3)nc2c1 | 904 nM
N#Cc1ccc2c(c1)CCN(CCC1CCC(NC(=O)/C=C/c3ccc4ccccc4c3)CC1)CC2 (stereo not given) | 724 nM
O=S(=O)(NCCN1CCCC1)c1ccc(-c2ccc(CNCc3ccccc3)cc2)cc1 | 775 nM
Cc1[nH]c2ccc(O)cc2c1C1CCN(CC2CCC(NC(=O)/C=C/c3c(Cl)cccc3Cl)CC2)CC1 (stereo not given) | 817 nM
COC(=O)c1ccc2nc(-c3cc(-c4cccc(-c5ccccc5)c4)cnc3N)[nH]c2c1 | 211 nM
Cc1ccc(CNC(=O)c2cc3c(=O)n4ccccc4nc3n(CCCN3CCOCC3)c2=N)cc1 | 1090 nM
CCCc1cc(OC)c(CC2c3cc(O)c(Cl)cc3CCN2C)cc1OC (stereo not given) | 575 nM
C[C@H](NC(=O)c1c(OC2CN(C(c3ccccc3)c3ccccc3)C2)c(-c2ccccc2)nc2ccccc12)C1CCCCC1 | 978 nM

SMILES | XC50
CC(=O)Nc1ccc(OCCN(CC(C)C)c2ccc(C#N)c(C(F)(F)F)c2)c(Cl)c1 | 786 nM
CC(C)(C)c1ccc(C(=O)NC2CCC(CCN3CCc4ccc(S(C)(=O)=O)cc4CC3)CC2)cc1C(F)(F)F (stereo not given) | 1220 nM
O=C(Nc1cccc(CN2CCCN(Cc3ccc(O)cc3)CC2)c1)c1ccc2ccccc2n1 | 938 nM
O=C(/C=C/c1ccc(C(F)(F)F)cc1)NCCCCCN1CCC(c2c[nH]c3ccccc23)CC1 | 683 nM
COc1ccc2nccc([C@@H](O)CN3CCC(NC(=O)C(c4ccsc4)N4CCN(c5ccccc5)CC4)CC3)c2c1 (stereo not given in full) | 442 nM
COc1cccc2c1CCN(CCN1CCC(CNC(=O)c3ccc(-c4ccc(C#N)cc4)cc3)CC1)C2 | 758 nM
CC(=O)Nc1nc(C(=O)Nc2cccc(-c3ccc(-c4nc5cc(F)ccc5[nH]4)cc3)c2)cs1 | 288 nM
CN(C)c1ccc(Br)c(Br)c1 | 975 nM
CC(C(=O)OCCOCn1cnc2c(=O)[nH]c(N)nc21)N(C)C(=O)OC(C)(C)C (stereo not given) | 1000 nM
Cc1c(C)n(C2CCCC2)c2ncnc(OC3CCN(CC(=O)NC4CC4)CC3)c12 | 790 nM
O=C(NCc1cccc(F)c1)Nc1cccc(-c2cccc(-c3nc4ccccc4[nH]3)c2)c1 | 389 nM
COc1ccc(C2=C(Nc3ccc4oc5ccccc5c4c3)c3ccccc3C2=O)cc1 | 830 nM
CNC(=O)COc1cc(C)c(C2CCN(CCCCNC(=O)c3ccc(-c4ccc(C(F)(F)F)cc4)cc3)CC2)cc1C | 868 nM
O=C(COc1ccc(Cl)c(Cl)c1)NCCCCCN1CCCN(C(=O)Nc2ccc(Cl)c(Cl)c2)CC1 | 1730 nM
COc1cc(F)c2nccc([C@@H](O)CN3CCC(NCc4ccc5c(n4)NC(=O)CS5)C(F)C3)c2c1 (stereo not given in full) | 1170 nM
CC1CN=C(Nc2ncc(Cl)cc2Cl)N1 (stereo not given) | 237 nM
FC(F)(F)COc1ccc(CNCCCCCCNCc2ccc(OCC(F)(F)F)c3ccccc23)c2ccccc12 | 400 nM
COc1cccc(CCNC(C)Cc2ccc(OCCCCOc3ccccc3)cc2)c1 (stereo not given) | 741 nM
O=C(Nc1ccc(OC(F)(F)F)cc1)NC1CCN(c2ccnc3ccccc23)C1 (stereo not given) | 244 nM
FC(F)(F)COc1c(CNCCCCCCNCc2ccc3ccccc3c2OCC(F)(F)F)ccc2ccccc12 | 761 nM
CCNc1cc(C(=O)N[C@@H](Cc2ccccc2)[C@H](O)CNCc2cccc(OC)c2C)cc(N2CCCCS2(=O)=O)c1 | 518 nM
Cc1cccc2nc(-c3cccc(-c4cccc(NC(=O)Nc5ccsc5)c4)c3)[nH]c12 | 170 nM
O=C(/C=C/c1ccc(Cl)c(Cl)c1)N1CCC(CCN2CCC(c3c[nH]c4ccccc34)CC2)CC1 | 602 nM
CC(=O)Nc1cccc(C(=O)Nc2cccc(-c3cccc(-c4nc5ccccc5[nH]4)c3)c2)c1 | 594 nM

SMILES | XC50
Cc1cc(N[C@@H](Cc2ccccc2)C(=O)NCc2cccs2)nc(NCCc2ccc(F)cc2)n1 | 854 nM
CCCCN(CCCC)CCNC(=O)c1cccc(NC(=O)N2CCc3cc(SC)c(C(F)(F)F)cc32)c1 | 809 nM
Cc1cc(OCC2CCN(c3ccc(C(=O)NC4CC4)cn3)CC2)ccc1F | 868 nM
CS(=O)(=O)Nc1cccc(-c2cnc3[nH]cc(-c4ccc(CN)cc4)c3c2)c1 | 986 nM
Cc1cccc2nc(-c3ccc(-c4cccc(CNCCN5CCNCC5)c4)cc3)[nH]c12 | 1230 nM
CCS(=O)(=O)c1ccc(-c2cnc3[nH]cc(-c4ccc(N)cc4)c3c2)cc1 | 851 nM
COc1ccc(-c2nc(-c3ccc([N+](=O)[O-])cc3)no2)cc1OC | 409 nM
O=C(NCCN1CCCC1)c1cccc(-c2ccc(-c3nc4cc(C(F)(F)F)ccc4[nH]3)cc2)c1 | 752 nM
COc1ccc(C)c(Nc2ccnc(Nc3ccc(-c4cnc[nH]4)cc3)n2)c1 | 1370 nM
Nc1cccc(CNCc2ccc(-c3ccc(-c4nc5cc(C(F)(F)F)ccc5[nH]4)s3)cc2)c1 | 438 nM
COc1c(C2CCN(CCCCNC(=O)c3ccc(-c4ccc(C#N)cc4)cc3)CC2)cc(Cl)c2c1CCCC2 | 776 nM
Cc1cccc2nc(-c3cccc(-c4ccc(CNCCc5ccncc5)cc4)c3)[nH]c12 | 119 nM
CCOc1ccc(N2CCN(CCCCNC(=O)c3ccc(NC(=O)c4ccc(Cl)cc4)cc3)CC2)c(OCC)c1 | 567 nM
COc1ccc(CN2CCN(CCOC(c3ccc(F)cc3)c3ccc(F)cc3)CC2)c(O)c1 | 733 nM
COc1ccc2c(=NN=Cc3ccccc3Cl)cc(C)[nH]c2c1 | 373 nM
Clc1ccc(OCCC2CCN(CCCCCCCN3CCC(CCOc4ccc(Cl)c(Cl)c4)CC3)CC2)cc1Cl | 624 nM
Cc1noc(C)c1-c1cccc(CNCc2cccc(-c3cccc(-c4nc5ccccc5[nH]4)c3)c2)c1 | 377 nM
N=c1n(CCN2CCCCC2)c2ccccc2n1CC(=O)c1cccc([N+](=O)[O-])c1 | 879 nM
CC(C)(C)C(=O)Oc1ccc(CC2NCCc3cc(OC(=O)C(C)(C)C)c(OC(=O)C(C)(C)C)cc32)cc1OC(=O)C(C)(C)C (stereo not given) | 419 nM
O=C(CCc1cccc(O)c1)NCC(NCCCNc1cc(=O)c2ccccc2[nH]1)c1cc(Br)cc(Br)c1 (stereo not given) | 1170 nM
NS(=O)(=O)c1cccc(N/C=C2\C(=O)Nc3ccc(S(=O)(=O)Cc4c(Cl)cccc4Cl)cc32)c1 | 720 nM
COc1ccc2c(NN=Cc3ccccc3Cl)ccnc2c1 | 622 nM
N#Cc1ccc2c(c1)CCN(CCC1CCC(NC(=O)/C=C/c3ccc(F)c4ccccc34)CC1)CC2 (stereo not given) | 844 nM
COc1cc(C(=O)Nc2nc3ccccc3[nH]2)ccc1OCC(=O)Nc1cccc(C(F)(F)F)c1 | 738 nM

SMILES | XC50
CC(=O)N(C)c1cccc(C(=O)Nc2cccc(-c3cccc(-c4nc5cccc(C)c5[nH]4)c3)c2)c1 | 617 nM
CCN(CC)Cc1cc(NC(=O)c2ccccc2O)ccc1Oc1ccc(Cl)cc1 | 827 nM
COc1ccccc1CNc1nc(Nc2ccccc2C)nc2ccccc12 | 806 nM
N#Cc1ccc(N(CCNS(=O)(=O)c2cc(Br)c(Cl)s2)Cc2ccccc2C(F)(F)F)cc1C(F)(F)F | 857 nM
CCN(C(=O)CSc1cc(C)c2cc(C)cc(C)c2n1)C1CCS(=O)(=O)C1 (stereo not given) | 667 nM
COc1cccc2c(C)cc(NCc3ccc(Cl)cc3)nc12 | 860 nM
O=[N+]([O-])c1cccc(CNC2CCN(Cc3ccc(Cl)c(Cl)c3)CC2)c1 | 456 nM
COc1ccc(C(=O)Cn2nc(-c3ccc(Cl)cc3)ccc2=O)c(OC)c1 | 498 nM
CCOC(=O)Nc1cc(-c2csc(N=C(N)N)n2)cc([N+](=O)[O-])c1 | 816 nM
Cc1nc2nc(N)nc(N)c2c(C)c1Cc1ccc(Cl)cc1 | 216 nM
COc1ccc2[nH]ccc(=NN=Cc3ccc(F)cc3)c2c1 | 720 nM
O=C(Nc1cccc(-c2nn3ccccc3c2-c2ccnc(Nc3ccccc3)n2)c1)c1cc(F)ccc1F | 953 nM
O=C(NCc1ccc(Cl)c(Cl)c1)[C@H]1CNCCN1C(=O)c1ccccc1 | 955 nM
CNC(=O)C(NC(=O)c1ccccc1C(=O)OC)c1ccccc1 (stereo not given) | 556 nM
CCC(C)(C)C1CCc2[nH]c3ccccc3c(=O)c2C1 (stereo not given) | 384 nM
Cc1nnc2c(NC(=O)NC3CCCC3)cc3cc(-c4ccc(CN5CCN(C)CC5)cc4)ccc3n12 | 1020 nM
CSc1ccc(CN2CCC(CNC(=O)c3cc(-c4ccccc4F)cs3)C2)cc1 (stereo not given) | 1140 nM
Cc1cccc2nc(-c3ccc(-c4cccc(C(=O)N5CCCCC5C(C)O)c4)s3)[nH]c12 (stereo not given) | 636 nM
COc1cc2c(Nc3cccc(NC(=O)c4ccccc4)c3)ncnc2cc1OCCCN1CCOCC1 | 155 nM
COc1ccc(NC(=O)Nc2ccc(-c3ccccc3)cc2Cl)cc1N1CCN(C)CC1 | 875 nM
CCOC(=O)c1c(C)n(-c2ccccc2)c2ccc(OC(=O)c3ccc(S(=O)(=O)N(CC)CC)cc3)cc12 | 748 nM
CC(C)CC1(C(=O)OC(C)(C)C)CC(C(=O)OC(C)(C)C)C(c2cccs2)N1C(=O)c1ccc(C(C)(C)C)cc1 (stereo not given) | 137 nM
O=C(N[C@@H](Cc1ccccc1)C(=O)NC1CCCCC1)c1ccc(O)c(-c2cccc(C(F)(F)F)c2)c1 | 809 nM
